Tests used:
[1] = Acid strength (pKa) of the ester-forming acid of model compounds; assay type: physicochemical; conditions: pKa of the acid forming the ester bond
Source text: Table 1 illustrates the effect of acid strength on rate of hydrolytic cleavage for several model compounds.

[2] = Release studies of co-drug loaded nanoparticles, external sink method; assay type: physicochemical; conditions: sink conditions, 37° C., acceptor medium heptane/methyl tert-butyl ether 1:1 v/v
Procedure: Release samples were also analyzed by TLC (right panel). […] (lane 3 vs. 2). Free SN-22 is included in lane 1.

[3] = tested on: MYCN-amplified NB cells (IMR-32, ATCC CCL-127); experiment: Antiproliferative effect of co-drug loaded nanoparticles on neuroblastoma cells; assay type: cell-based; conditions: IMR-32 cells, doses equivalent to 5-20 ng SN-22 per well, 96-well plates
Procedure: Blank NP were used as a negative control, and unmodified SN-22, diluted in cell culture medium from a DMSO stock, was used as a positive control.
Cell growth curves of NB cells treated with co-drug loaded nanoparticles at doses corresponding to 5 ng SN-22 per well (96-well plates) for 24 hours are shown in comparison to “no treatment”, drug-free nanoparticles and free SN-22 (upper panel). Cell growth inhibition (%) determined 6 days post-treatment is shown for co-drug loaded and drug-free (control) nanoparticles as a function of dose and exposure duration (lower panel).

| Compound | Acid pKa [1] | also measured |
| --- | --- | --- |
| CCOC(C)=O [CH3COOEt] | 4.7 |  |
| SN-22 ester of tocopheryl oxyacetic acid [SN22-TOAc] |  | Release rate from nanoparticles [2]: more stable retention |
| CCc1c2c(nc3ccccc13)-c1cc3c(c(=O)n1C2)COC(=O)[C@]3(O)CC [SN-22, 7-ethylcamptothecin] |  | Cell growth / proliferation inhibition [3]: fully inhibited cell growth |
| CCOC(=O)COC [CH3OCH2COOEt] | 3.6 |  |
| CCOC(=O)COC(C)=O [CH3COOCH2COOEt] | 2.7 |  |
| CCOC(=O)C(=O)NC [CH3NHCOCOEt] | 1.8 |  |
